Experimental data taken from publication PMC10303900, “Discovery of a New Chalcone-Trimethoxycinnamide Hybrid with Antimitotic Effect: Design, Synthesis, and Structure—Activity Relationship Studies” (Pharmaceuticals, 2023).

Columns and labels:
HCT116 cells [1] = test: Immunofluorescence of mitotic spindle morphology (anti-α-tubulin); assay type: cell-based, human; conditions: HCT116, GI50 of the compound, 24 h
Experimental: To understand the mechanism behind the induction of mitotic arrest after treatment with the compound 7, we treated HCT116 cells with the GI50 of the compound. Twenty-four hours later, we performed an immunofluorescence assay using an anti-α-tubulin antibody to visualize the spindle morphology.
Cells were treated as for DAPI staining. After methanol fixation, cells were blocked with 10% FBS in PBST (0.05% Tween-20 in PBS) for 30 min at room temperature, followed by 1 h incubation with a primary antibody (mouse anti-α-tubulin, 1:2500, Sigma-Aldrich Co., Ltd., Gillingham, UK) diluted in 5% FBS in PBST. Then, cells were washed three times in PBST and incubated with an Alexa Fluor 488 conjugated secondary antibody (1:1500, Molecular Probes, Eugene, OR, USA). DNA was stained with DAPI.

HCT116 cells [2] = test: Apoptosis detection via flow cytometry (Annexin V-FITC/PI); assay type: cell-based, human; conditions: HCT116, 48 h, vs untreated or DMSO
Experimental: Double labeling with annexin V-FITC and propidium iodide dyes was used to detect cells going through apoptotic events, using a flow cytometer in order to obtain insights into the mechanism by which compounds 6, 7, and 13 generate antiproliferative activity against colorectal carcinoma cells. For that, HCT116 cells were exposed to each compound for 48 h.
To evaluate apoptotic cell death, the “Annexin V-FITC Apoptosis Detection Kit” (eBioscience, Vienna, Austria) was used according to the manufacturer’s instructions. Briefly, 1.2 × 10^5 cells/well were seeded into 6-well plates, and 24 h later, cells were treated with compounds 6, 7, and 13. After 48 h, floating and adherent cells were collected, pelleted via centrifugation (1000 rpm, 5 min), and suspended in binding buffer. Annexin V-FITC was added and incubated for 10 min, protected from light. Cells were washed and resuspended in binding buffer, and 20 μg/mL of propidium iodide (PI) was added. Fluorescence was assessed using the BD Accuri™ C6 Plus flow cytometer (BD Biosciences, Qume Drive, San Jose, CA, USA), and the data were analyzed with the BD Accuri TM C6 Plus software (version 1.0.27.1, San Jose, CA, USA). At least 20,000 events per sample were collected.

p53–MDM2 interaction = biological target: T1, p53–MDM2 interaction (Homo sapiens, UniProt Q00987); test: Yeast targeted screening assay of p53–MDM2 interaction; conditions: 10 μM, yeast cell-based assay, data not shown
T1 construct: expressed in transfected cells; host or cells: Saccharomyces cerevisiae strain CG379
T1 sequence (Q00987 whole entry): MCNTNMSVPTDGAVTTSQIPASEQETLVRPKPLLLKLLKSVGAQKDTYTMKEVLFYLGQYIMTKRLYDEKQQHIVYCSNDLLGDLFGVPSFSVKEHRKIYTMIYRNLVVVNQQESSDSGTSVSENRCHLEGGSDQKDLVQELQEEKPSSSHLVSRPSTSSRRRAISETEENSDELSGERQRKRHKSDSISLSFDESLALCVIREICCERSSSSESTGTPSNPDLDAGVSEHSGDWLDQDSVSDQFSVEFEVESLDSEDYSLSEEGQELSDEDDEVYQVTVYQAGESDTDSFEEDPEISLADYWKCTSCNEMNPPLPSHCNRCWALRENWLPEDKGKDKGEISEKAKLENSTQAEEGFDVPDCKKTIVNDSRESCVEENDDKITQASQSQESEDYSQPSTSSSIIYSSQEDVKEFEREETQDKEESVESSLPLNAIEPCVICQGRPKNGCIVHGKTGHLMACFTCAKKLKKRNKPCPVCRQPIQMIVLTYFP
Experimental: However, since CM-M345 (1) has been previously reported as a p53-MDM2 inhibitor by our research group, the effect of 10 μM of compounds 6, 7, and 13 on the p53–MDM2 interaction was analyzed using yeast cell-based assays.
Saccharomyces cerevisiae (strain CG379) expressing human wt p53 alone and combined with human MDM2 were obtained in previous works. For the expression of human proteins (routinely grown in minimal selective medium), cells were diluted to 0.05 OD600 in selective induction medium containing 2% (w/w) galactose, 1% (w/w) raffinose, 0.7% (w/w) yeast nitrogen base without amino acids from Difco (Quilaban, Sintra, Portugal), and all the amino acids required for yeast growth ([…]) except leucine and tryptophan. Yeast cells were incubated at 30 °C under continuous orbital shaking (200 rpm) with 10 µM compounds or 0.1% DMSO only, for approximately 42 h (time required by the control yeast, co-transformed with the empty vectors and incubated with DMSO only, to achieve 0.4 OD600). Yeast growth was analyzed by counting the number of colony-forming units (CFU) after 2 days of incubation at 30 °C on Sabouraud Dextrose Agar from Liofilchem (Frilabo, Porto, Portugal).

MCF-7 = test: SRB growth inhibition assay, breast adenocarcinoma cells; assay type: cell-based; conditions: Homo sapiens, MCF7, 48 h
Experimental: (§1) A sulforhodamine B (SRB) assay was performed to evaluate the in vitro growth inhibitory activity of all synthesized hybrids, as well as intermediates in the human tumor cell lines of melanoma (A375-C5), breast adenocarcinoma (MCF-7), and colorectal carcinoma (HCT116), as well as on the non-tumor Human Pulmonary Alveolar Epithelial cell line (HPAEpiC). The concentration inducing 50% cell growth inhibition (GI50), was calculated. […] The overall results prompt us to further investigate the mechanism behind the cytotoxic activities of compounds 6, 7, and 13 in colorectal tumor cells. Moreover, in silico studies were performed, aiming to screen for drug-likeness.
(§2) A375-C5 (melanoma) and MCF-7 (breast adenocarcinoma) cell lines were obtained from the European Collection of Cell Culture, UK, and were grown in RPMI-1640 medium (Roswell Park Memorial Institute, Biochrom, Cambridge, UK) with 5% inactivated FBS (fetal bovine serum, Biochrom). HCT-116 (colon adenocarcinoma) cells were grown in DMEM medium (Dulbecco’s Modified Eagle’s, Biochrom) with 5% inactivated FBS. The non-tumor human pulmonary alveolar epithelial cells (HPAEpiC) were obtained from ScienCell Research Laboratories and grown in DMEM medium supplemented with 10% FBS and 1% non-essential amino acids (Sigma-Aldrich Co., Saint Louis, MO, USA). All cell lines were maintained in a humidified incubator (Hera Cell, Heraeus, Hanau, Germany) at 37 °C and with 5% CO2, and cell viability was regularly monitored using the exclusion trypan blue dye.
(§3) A total of 5.0 × 10^4 A375-C5, MCF-7, and HCT-116 cells, or 6.0 × 10^4 HPAEpiC cells were seeded in 96-well plates and incubated at 37 °C and 5% CO2 to allow for cell attachment. After 24 h, cells were treated with two-fold serial dilutions of test compounds (0–150 µM), or with DMSO as the compound solvent. In parallel, cells in a time-zero (T0) plate, without treatment, were fixed with 50% (m/v) trichloroacetic acid (TCA, Merck Millipore, Darmstadt, Germany), for 1 h at 4 °C, and then washed with distilled water and left to dry. Forty-eight hours after compound treatment, cells were fixed with 50% TCA and stained with SRB (Sigma-Aldrich Co., Ltd., Gillingham, UK) for 30 min at room temperature, followed by 5 rounds of washing with 1% (v/v) acetic acid (Merck Milli-pore, Darmstadt, Germany). SRB–protein complexes were then solubilized with […] Tris buffer (Sigma-Aldrich Co., Ltd., Gillingham, UK) for 30 min, and the absorbance was measured at 515 nm in a microplate reader (Biotek Synergy 2, BioTek Instruments, Inc., Winooski, VT, USA). A dose-response curve was obtained for each cell line, and the concentration that caused 50% cell growth inhibition (GI50) was calculated.

HPAEpiC = test: SRB growth inhibition assay, non-tumor pulmonary alveolar epithelial cells; assay type: cell-based; conditions: Homo sapiens, Epithelial cell, 48 h
Experimental: as §1, §2, §3

CCCc1c(OCCNC(=O)/C=C/c2cc(OC)c(OC)c(OC)c2)ccc(C(=O)/C=C/c2cc(OC)c(OC)c(OC)c2)c1O [Compound 7, (E)-N-(2-(3-hydroxy-2-propyl-4-((E)-3-(3,4,5-trimethoxyphenyl)acryloyl)phenoxy)ethyl)-3-(3,4,5-trimethoxyphenyl)acrylamide]
Cells with collapsed (monopolar-like) mitotic spindles (HCT116 cells [1]): 91.41 ± 4.87%
Percentage of bipolar spindles (HCT116 cells [1]): 6.57 ± 2.13%
Apoptosis induction (Annexin V-positive cells) (HCT116 cells [2]): induces apoptotic tumor cell death
Effect on the p53–MDM2 interaction (reversal of the negative growth effect of MDM2 on p53) (p53–MDM2 interaction): none of the tested compounds significantly reversed the negative inhibitory growth effect of MDM2 on p53
GI50 (MCF-7): > 75 µM
GI50 (HPAEpiC): 57.2 ± 8.68 µM
